ChEMBL document CHEMBL5303573, “Mapping human microbiome drug metabolism by gut bacteria and their genes” (Nature, 2019)

Experiments:
[1] = The drug is tested on Clostridium sporogenes strain: ATCC15579 for biotransformation. The drug concentrations were measured before and after a 12-h incubation by liquid-chromatography-coupled mass spectrometry (LC–MS); conditions: 2 µM
[2] = The drug is tested on Clostridium symbiosum strain: ATCC14940 for biotransformation. The drug concentrations were measured before and after a 12-h incubation by liquid-chromatography-coupled mass spectrometry (LC–MS); conditions: 2 µM
[3] = The drug is tested on Blautia luti strain: DSM14534 for biotransformation. The drug concentrations were measured before and after a 12-h incubation by liquid-chromatography-coupled mass spectrometry (LC–MS); type: ADME; design: dose 2 uM, timepoint 0 vs 12 hours; conditions: 2 µM
[4] = bacteroides stercoris, 12 h, 2 µM
Description: The drug is tested on Bacteroides stercoris strain: ATCC43183 for biotransformation. The drug concentrations were measured before and after a 12-h incubation by liquid-chromatography-coupled mass spectrometry (LC–MS)

[5] = The drug is tested on Bacteroides sp. WH2 strain: WH2 for biotransformation. The drug concentrations were measured before and after a 12-h incubation by liquid-chromatography-coupled mass spectrometry (LC–MS); conditions: bacteroides sp. wh2, 12 h, 2 µM
[6] = parabacteroides johnsonii, 12 h, 2 µM
Description: The drug is tested on Parabacteroides johnsonii strain: DSM18315 for biotransformation. The drug concentrations were measured before and after a 12-h incubation by liquid-chromatography-coupled mass spectrometry (LC–MS)

[7] = The drug is tested on Edwardsiella tarda strain: ATCC23685 for biotransformation. The drug concentrations were measured before and after a 12-h incubation by liquid-chromatography-coupled mass spectrometry (LC–MS); conditions: 2 µM
[8] = limosilactobacillus reuteri cf48-3a, 12 h, 2 µM
Description: The drug is tested on Lactobacillus reuteri CF48-3A strain: BEI HM-102 for biotransformation. The drug concentrations were measured before and after a 12-h incubation by liquid-chromatography-coupled mass spectrometry (LC–MS)

[9] = The drug is tested on Bacteroides uniformis strain: ATCC8492 for biotransformation. The drug concentrations were measured before and after a 12-h incubation by liquid-chromatography-coupled mass spectrometry (LC–MS); conditions: 2 µM
[10] = The drug is tested on Bacteroides caccae strain: ATCC43185 for biotransformation. The drug concentrations were measured before and after a 12-h incubation by liquid-chromatography-coupled mass spectrometry (LC–MS); conditions: 2 µM
[11] = The drug is tested on Bifidobacterium breve strain: DSM20213 for biotransformation. The drug concentrations were measured before and after a 12-h incubation by liquid-chromatography-coupled mass spectrometry (LC–MS); conditions: 2 µM
[12] = bacteroides fragilis, 12 h, 2 µM
Description: The drug is tested on Bacteroides fragilis strain: NCTC 9343 for biotransformation. The drug concentrations were measured before and after a 12-h incubation by liquid-chromatography-coupled mass spectrometry (LC–MS)

[13] = The drug is tested on Parabacteroides merdae strain: ATCC43184 for biotransformation. The drug concentrations were measured before and after a 12-h incubation by liquid-chromatography-coupled mass spectrometry (LC–MS); conditions: 2 µM
[14] = The drug is tested on Clostridium ramosum strain: DSM1402 for biotransformation. The drug concentrations were measured before and after a 12-h incubation by liquid-chromatography-coupled mass spectrometry (LC–MS); conditions: thomasclavelia ramosa, 2 µM
[15] = akkermansia muciniphila, 12 h, 2 µM
Description: The drug is tested on Akkermansia muciniphila strain: ATCC BAA-835 for biotransformation. The drug concentrations were measured before and after a 12-h incubation by liquid-chromatography-coupled mass spectrometry (LC–MS)

[16] = The drug is tested on Bifidobacterium ruminantium strain: fecal isolate for biotransformation. The drug concentrations were measured before and after a 12-h incubation by liquid-chromatography-coupled mass spectrometry (LC–MS); conditions: 2 µM
[17] = bacteroides fragilis, 12 h, 2 µM; remark: listed apart in the source
Description: The drug is tested on Bacteroides fragilis strain: DS-208 for biotransformation. The drug concentrations were measured before and after a 12-h incubation by liquid-chromatography-coupled mass spectrometry (LC–MS)

[18] = bacteroides eggerthii, 12 h, 2 µM
Description: The drug is tested on Bacteroides eggerthii strain: DSM20697 for biotransformation. The drug concentrations were measured before and after a 12-h incubation by liquid-chromatography-coupled mass spectrometry (LC–MS)

[19] = The drug is tested on Bacteroides vulgatus strain: ATCC8482 for biotransformation. The drug concentrations were measured before and after a 12-h incubation by liquid-chromatography-coupled mass spectrometry (LC–MS); conditions: phocaeicola vulgatus, 2 µM
[20] = The drug is tested on Providencia rettgeri strain: DSM1131 for biotransformation. The drug concentrations were measured before and after a 12-h incubation by liquid-chromatography-coupled mass spectrometry (LC–MS); type: ADME; design: dose 2 uM, timepoint 0 vs 12 hours; conditions: 2 µM

Compound	Bacterial Biotransformation [1]	Bacterial Biotransformation [2]	Bacterial Biotransformation [3]	Bacterial Biotransformation [4]	Bacterial Biotransformation [5]	Bacterial Biotransformation [6]	Bacterial Biotransformation [7]	Bacterial Biotransformation [8]	Bacterial Biotransformation [9]	Bacterial Biotransformation [10]	Bacterial Biotransformation [11]	Bacterial Biotransformation [12]	Bacterial Biotransformation [13]	Bacterial Biotransformation [14]	Bacterial Biotransformation [15]	Bacterial Biotransformation [16]	Bacterial Biotransformation [17]	Bacterial Biotransformation [18]	Bacterial Biotransformation [19]	Bacterial Biotransformation [20]
OC(Cn1cncn1)(Cn1cncn1)c1ccc(F)cc1F [FLUCONAZOLE]	Compound metabolized	Compound metabolized	Compound NOT metabolized	Compound metabolized	Compound NOT metabolized	Compound metabolized	Compound NOT metabolized	Compound NOT metabolized	Compound metabolized	Compound NOT metabolized	Compound NOT metabolized	Compound metabolized	Compound NOT metabolized	Compound NOT metabolized	Compound metabolized	Compound metabolized				
Cc1ccc(S(=O)(=O)NC(=O)NN2CC3CCCC3C2)cc1 (stereo not given) [GLICLAZIDE]	Compound NOT metabolized	Compound NOT metabolized	Compound NOT metabolized	Compound NOT metabolized	Compound NOT metabolized	Compound NOT metabolized	Compound NOT metabolized	Compound NOT metabolized		Compound NOT metabolized	Compound NOT metabolized	Compound NOT metabolized	Compound NOT metabolized	Compound NOT metabolized	Compound NOT metabolized	Compound NOT metabolized	Compound NOT metabolized	Compound NOT metabolized	Compound metabolized	
COC(=O)Nc1nc2ccc(C(=O)c3ccccc3)cc2[nH]1 [MEBENDAZOLE]		Compound NOT metabolized		Compound metabolized	Compound NOT metabolized	Compound NOT metabolized	Compound NOT metabolized		Compound metabolized	Compound NOT metabolized	Compound NOT metabolized	Compound metabolized	Compound NOT metabolized	Compound NOT metabolized	Compound NOT metabolized	Compound metabolized	Compound metabolized	Compound metabolized	Compound metabolized	Compound NOT metabolized
CN1CCN2c3ccccc3Cc3ccccc3C2C1 (stereo not given) [MIANSERIN]	Compound NOT metabolized	Compound NOT metabolized	Compound NOT metabolized	Compound NOT metabolized	Compound NOT metabolized		Compound NOT metabolized	Compound NOT metabolized	Compound NOT metabolized	Compound NOT metabolized	Compound NOT metabolized	Compound NOT metabolized	Compound NOT metabolized	Compound NOT metabolized	Compound NOT metabolized	Compound NOT metabolized	Compound NOT metabolized	Compound NOT metabolized		
CCN(CC)CCOC(=O)C(Cc1cccc2ccccc12)CC1CCCO1.O=C(O)C(=O)O (stereo not given) [NAFRONYL OXALATE]	Compound NOT metabolized	Compound NOT metabolized	Compound NOT metabolized	Compound NOT metabolized	Compound NOT metabolized		Compound NOT metabolized	Compound NOT metabolized	Compound metabolized	Compound NOT metabolized	Compound NOT metabolized	Compound metabolized		Compound NOT metabolized	Compound NOT metabolized	Compound metabolized	Compound NOT metabolized	Compound NOT metabolized	Compound metabolized	
CO[C@]12C[C@@H](COC(=O)c3cncc(Br)c3)CN(C)[C@@H]1Cc1cn(C)c3cccc2c13 [NICERGOLINE]	Compound NOT metabolized	Compound NOT metabolized	Compound NOT metabolized	Compound NOT metabolized	Compound NOT metabolized	Compound NOT metabolized	Compound NOT metabolized	Compound NOT metabolized	Compound metabolized	Compound NOT metabolized	Compound NOT metabolized	Compound NOT metabolized	Compound NOT metabolized	Compound NOT metabolized	Compound NOT metabolized	Compound NOT metabolized	Compound NOT metabolized	Compound NOT metabolized	Compound metabolized	
CN(C(=O)CN(CCO)CC(=O)N(C)C(C)(C)Cc1ccccc1)C(C)(C)Cc1ccccc1 [OXETHAZAINE]	Compound NOT metabolized	Compound NOT metabolized	Compound NOT metabolized	Compound NOT metabolized	Compound NOT metabolized	Compound NOT metabolized	Compound NOT metabolized			Compound NOT metabolized	Compound NOT metabolized		Compound NOT metabolized	Compound NOT metabolized	Compound NOT metabolized	Compound NOT metabolized		Compound NOT metabolized	Compound NOT metabolized	
Fc1ccc([C@@H]2CCNC[C@H]2COc2ccc3c(c2)OCO3)cc1 [PAROXETINE]		Compound NOT metabolized	Compound NOT metabolized	Compound metabolized	Compound NOT metabolized	Compound metabolized	Compound NOT metabolized	Compound NOT metabolized	Compound NOT metabolized	Compound NOT metabolized	Compound NOT metabolized	Compound NOT metabolized	Compound NOT metabolized	Compound NOT metabolized	Compound NOT metabolized	Compound NOT metabolized	Compound NOT metabolized	Compound NOT metabolized	Compound NOT metabolized	Compound NOT metabolized
CCCN1C[C@H](CSC)C[C@@H]2c3cccc4[nH]cc(c34)C[C@H]21.CS(=O)(=O)O [PERGOLIDE MESYLATE]	Compound NOT metabolized	Compound NOT metabolized	Compound NOT metabolized	Compound NOT metabolized	Compound NOT metabolized	Compound NOT metabolized		Compound NOT metabolized	Compound NOT metabolized	Compound NOT metabolized	Compound NOT metabolized	Compound NOT metabolized	Compound NOT metabolized	Compound NOT metabolized		Compound NOT metabolized	Compound NOT metabolized	Compound NOT metabolized	Compound NOT metabolized	
